The experiment in a line: Tooth whitening of extracted human teeth with carbamide peroxide gel, delivered passively or with displaced dipolar magnetic elements in motion. The following applies: for relative (%) change in tooth colour (reduction in yellow content), mean: 700 mg of 36% gel, 10 teeth; for relative (%) change in tooth colour (reduction in yellow content), mean / average shift from the yellow spectrum to the white spectrum, mean / change in colour luminosity, mean: 3 minutes daily for 5 days; for average shift from the yellow spectrum to the white spectrum, mean / change in colour luminosity, mean: 36% gel. The method, then: The ability of the devices of the present invention to deliver active agents (carbamide peroxide) through the dentine of teeth was tested.
20 human teeth were donated by a registered oral surgeon and stored in alcohol for 48 hours prior to ultrasonic cleaning and drying using warm air and absorbent paper. Teeth were divided into two groups. 10 teeth were allocated to the active group (exposed to pairs of displaced dipolar magnetic elements in motion) and 10 allocated to the passive delivery group (exposed to materials with no magnetic field but also in motion). Size, colour and degree of degeneration were matched between the groups.
Individual teeth were photographed using controlled light conditions before and after application of Carbamide Peroxide Gel using a 10 megapixel camera (Pentax Optio) digital camera. Commercial digital imaging software (Photoshop CS2 version 9), was used in CMYK mode to degenerate histograms and images of matched regions of enamel in tooth before and after application.
Each tooth was treated using 700 mg of 36% Carbaminde Peroxide based Tooth Whitening gel. This measure of gel was place on the surface of 10 sized matched pairs of displaced dipolar magnetic elements comprising flexible ETP008 magnetic material formed of a parallel linear array of displaced dipolar magnetic elements with common pole pairs of 450 gauss peak flux with a centre to centre spatial separation of 4 mm oscillated by electrical motor at a frequency of 3 Hz [this is also known as the field-in-motion or FIM group, or eM patch group]. The control group was placed on the surface of polystyrene cards and also oscillated at 3 Hz using the same motorized oscillation means. Teeth were placed horizontally into the carbamide peroxide gel mounds ensuring complete contact and coverage. After 3 minutes of exposure, teeth were removed, cleaned and preserved for the following day. This was repeated for 5 consecutive days.
Analysis was conducted using three measures of colour change. Relative change in percentage of yellow in the image, changes in the spectrum shift from yellow to white and in the luminosity level.
Relative change in the percentage of Yellow in the matched regions of enamel was taken as reflecting the change in the colour of the underlying dentin materials. Differences in the relative change in the Yellow spectrum were interpreted as reflecting the different penetrations rates of peroxide delivery through the enamel under active and passive conditions.
Changes in the spectrum medium point reflects change in colour from the yellow towards the white end of the spectrum. Again, differences in spectrum medium point location were interpreted as reflecting the different penetrations rates of peroxide delivery through the enamel under active and passive conditions.
Luminosity was recorded as a measure of brightness with changes reflecting different penetrations rates of peroxide delivery through the enamel under active and passive conditions.

Where [1] appears, read: Magnetic FIM (eM-patch): ETP008 array oscillated at 3 Hz.
[2] abbreviates: Passive: no magnetic field, oscillated at 3 Hz.

Structures are written as SMILES.

Consider `NC(N)=O.OO` [carbamide peroxide], for which, under setting [1], the “relative (%) change in tooth colour (reduction in yellow content), mean” value is listed as 43.98%; the “average shift from the yellow spectrum to the white spectrum, mean” value was determined as 36.20; the “change in colour luminosity, mean” value came out at 29.54. Besides, under setting [2], the “average shift from the yellow spectrum to the white spectrum, mean” value stood at 27.70 and the “change in colour luminosity, mean” value stood at 21.09. For the same molecule, the “relative (%) change in tooth colour (reduction in yellow content), mean” value (Passive: polystyrene card oscillated at 3 Hz, no magnetic field) came to 29.58%. Besides, the “greater increase in luminosity than the passive group” value (magnetic elements in motion vs passive, p=0.023) amounted to 40%. Further, the “greater reduction in yellow content compared to the passive group” value (magnetic elements in motion vs passive, p=0.025) is listed as 49%. Further, the “average shift from yellow to white spectrum greater than the passive diffusion group” value (magnetic elements in motion vs passive, p=0.044) amounted to 31%.
